What all share (assay): in vitro anti-bacterial activity, two-fold agar plate dilution method
What all share (format): cell-based

The subject of assay [1] is Escherichia coli CSH(RE45). To be noted: 37° C., 20 hours, read-out: MIC. The protocol: (§1) The agent for preventing and treating bacterial infections was tested for in vitro anti-bacterial activity by the following two-fold agar plate dilution method. Each test strain was incubated for 20 hours in a bouillon for measuring sensitivity to obtain a test culture (containing about […]). Portions of sensitivity measuring agar medium containing varying concentrations of the antibacterial agent were each innoculated with a 0.005 ml portion of the culture, followed by incubation at 37° C. for 20 hours. The minimum growth inhibitory concentration (MIC) in μg/ml was then determined.
(§2) MIC=minimum inhibitory concentration

For assay [2], the system named is Escherichia coli NIHJ-JC2. Conditions: NIHJJC2; Escherichia coli NIHJ-JC2; agar dilution, 37° C., 20 hours; read-out: MIC. The protocol: as §1, §2
Assay [3] relates to Klebsiella pneumoniae. Conditions: agar dilution, 37° C., 20 hours, read-out: MIC. The protocol:
as §1, §2

The subject of assay [4] is Proteus mirabilis. To be noted: agar dilution, 37° C., 20 hours, read-out: MIC. The protocol: as §1, §2
Assay [5] deals with Proteus vulgaris. To be noted: 20 h. The protocol:
as §1, §2

For assay [6], the system named is Pseudomonas aeruginosa. To be noted: agar dilution, 37° C., 20 hours, read-out: MIC. The protocol:
as §1, §2

For assay [7], the system named is Pseudomonas cepacia. Conditions: Burkholderia cepacia, 37° C., 20 hours, read-out: MIC. The protocol:
as §1, §2

For assay [8], the system named is Serratia marcescens. Conditions: agar dilution, 37° C., 20 hours, read-out: MIC. The protocol: as §1, §2
In assay [9] the test system is Staphylococcus aureus 209P. To be noted: Staphylococcus aureus 209P; agar dilution, 37° C., 20 hours; read-out: MIC. The protocol: as §1, §2

`CC(C)=CCn1c[n+](CC2=C(C(=O)[O-])N3C(=O)C(NC(=O)/C(=N\OC(C)(C)C(=O)O)c4csc(N)n4)C3SC2)c2ccccc21` (stereo not drawn) [Y, 7-{2-(2-aminothiazole-4-yl)-2-[potassium(2,2-dimethylacetate)oxyimino]acetamide}-3-[benz-3-N-(3-methyl-2-butenyl)-1-imidazoliomethyl]-3-cephem-4-carboxylate]: the MIC came out at 1.56 µg/mL in [1]; 6.25 µg/mL in assay [2]; 12.5 µg/mL in [3]; 6.25 µg/mL in [4]; 3.13 µg/mL in [5]; 25 µg/mL in assay [6]. The MIC in [7] is greater than 100 µg/mL; in assay [8] it was 12.5 µg/mL; in assay [9], 6.25 µg/mL.
